Source: the CheMixHub viscosity set
Where “and” joins values, the source holds several entries; their conditions need not be identical. Equal entries are not always repeated. ± gives the uncertainty stated by the source.

Assay: xn = mol fraction of the nth substance listed

CC#N + CO
viscosity (298.15 K, 101 kPa, x1 = 0.0892): 0.478 ± 0.006 mPa·s
viscosity (298.15 K, 101 kPa, x1 = 0.1871): 0.431 ± 0.005 mPa·s
viscosity (298.15 K, 101 kPa, x1 = 0.2884): 0.397 ± 0.005 mPa·s
viscosity (298.15 K, 101 kPa, x1 = 0.4054): 0.365 ± 0.004 mPa·s
viscosity (298.15 K, 101 kPa, x1 = 0.4849): 0.351 ± 0.004 mPa·s
viscosity (298.15 K, 101 kPa, x1 = 0.5981): 0.339 ± 0.004 mPa·s
viscosity (298.15 K, 101 kPa, x1 = 0.6986): 0.331 ± 0.004 mPa·s
viscosity (298.15 K, 101 kPa, x1 = 0.8078): 0.327 ± 0.004 mPa·s
viscosity (298.15 K, 101 kPa, x1 = 0.9013): 0.329 ± 0.004 mPa·s
viscosity (298.15 K, 101 kPa, x2 = 0.1219): 0.331 ± 0.003 mPa·s
viscosity (298.15 K, 101 kPa, x2 = 0.178): 0.334 ± 0.004 mPa·s
viscosity (298.15 K, 101 kPa, x2 = 0.2): 0.334 ± 0.001 mPa·s
viscosity (298.15 K, 101 kPa, x2 = 0.216): 0.329 ± 0.003 mPa·s and 0.333 ± 0.004 mPa·s
viscosity (298.15 K, 101 kPa, x2 = 0.3487): 0.334 ± 0.003 mPa·s
viscosity (298.15 K, 101 kPa, x2 = 0.378): 0.342 ± 0.004 mPa·s
viscosity (298.15 K, 101 kPa, x2 = 0.394): 0.343 ± 0.004 mPa·s
viscosity (298.15 K, 101 kPa, x2 = 0.4): 0.343 ± 0.001 mPa·s
viscosity (298.15 K, 101 kPa, x2 = 0.412): 0.345 ± 0.004 mPa·s
viscosity (298.15 K, 101 kPa, x2 = 0.577): 0.369 ± 0.004 mPa·s
viscosity (298.15 K, 101 kPa, x2 = 0.6): 0.373 ± 0.001 mPa·s
viscosity (298.15 K, 101 kPa, x2 = 0.6804): 0.339 ± 0.003 mPa·s
viscosity (298.15 K, 101 kPa, x2 = 0.711): 0.402 ± 0.004 mPa·s
viscosity (298.15 K, 101 kPa, x2 = 0.743): 0.419 ± 0.005 mPa·s
viscosity (298.15 K, 101 kPa, x2 = 0.8): 0.435 ± 0.001 mPa·s
viscosity (298.15 K, 101 kPa, x2 = 0.86): 0.459 ± 0.005 mPa·s
viscosity (298.15 K, 101 kPa, x2 = 0.881): 0.469 ± 0.005 mPa·s
viscosity (298.15 K, 101 kPa, x2 = 0.887): 0.472 ± 0.005 mPa·s
viscosity (298.15 K, 101 kPa, x2 = 0.9): 0.48 ± 0.004 mPa·s
viscosity (298.15 K, 101.33 kPa, x1 = 0.0495): 0.509 ± 0.004 mPa·s
viscosity (298.15 K, 101.33 kPa, x1 = 0.0999): 0.479 ± 0.004 mPa·s
viscosity (298.15 K, 101.33 kPa, x1 = 0.1494): 0.455 ± 0.003 mPa·s
viscosity (298.15 K, 101.33 kPa, x1 = 0.1995): 0.434 ± 0.003 mPa·s
viscosity (298.15 K, 101.33 kPa, x1 = 0.245): 0.418 ± 0.003 mPa·s
viscosity (298.15 K, 101.33 kPa, x1 = 0.2998): 0.4 ± 0.003 mPa·s
viscosity (298.15 K, 101.33 kPa, x1 = 0.3451): 0.387 ± 0.003 mPa·s
viscosity (298.15 K, 101.33 kPa, x1 = 0.3997): 0.374 ± 0.003 mPa·s
viscosity (298.15 K, 101.33 kPa, x1 = 0.4489): 0.364 ± 0.003 mPa·s
viscosity (298.15 K, 101.33 kPa, x1 = 0.495): 0.357 ± 0.003 mPa·s
viscosity (298.15 K, 101.33 kPa, x1 = 0.5496): 0.349 ± 0.003 mPa·s
viscosity (298.15 K, 101.33 kPa, x1 = 0.5999): 0.343 ± 0.003 mPa·s
viscosity (298.15 K, 101.33 kPa, x1 = 0.6494): 0.34 ± 0.003 mPa·s
viscosity (298.15 K, 101.33 kPa, x1 = 0.6997): 0.336 ± 0.003 mPa·s
viscosity (298.15 K, 101.33 kPa, x1 = 0.745): 0.334 ± 0.003 mPa·s
viscosity (298.15 K, 101.33 kPa, x1 = 0.7995): 0.333 ± 0.003 mPa·s
viscosity (298.15 K, 101.33 kPa, x1 = 0.8496): 0.335 ± 0.003 mPa·s
viscosity (298.15 K, 101.33 kPa, x1 = 0.8998): 0.338 ± 0.003 mPa·s
viscosity (298.15 K, 101.33 kPa, x1 = 0.95): 0.34 ± 0.003 mPa·s
viscosity (303 K, 100 kPa, x1 = 0.0991): 0.4985 ± 0.05 mPa·s
viscosity (303 K, 100 kPa, x1 = 0.2043): 0.4812 ± 0.049 mPa·s
viscosity (303 K, 100 kPa, x1 = 0.316): 0.4588 ± 0.046 mPa·s
viscosity (303 K, 100 kPa, x1 = 0.4039): 0.4395 ± 0.044 mPa·s
viscosity (303 K, 100 kPa, x1 = 0.5003): 0.4202 ± 0.042 mPa·s
viscosity (303 K, 100 kPa, x1 = 0.6063): 0.4016 ± 0.041 mPa·s
viscosity (303 K, 100 kPa, x1 = 0.7402): 0.3785 ± 0.038 mPa·s
viscosity (303 K, 100 kPa, x1 = 0.8688): 0.3645 ± 0.037 mPa·s
viscosity (303.15 K, 101 kPa, x1 = 0.0892): 0.423 ± 0.005 mPa·s
viscosity (303.15 K, 101 kPa, x1 = 0.1871): 0.385 ± 0.005 mPa·s
viscosity (303.15 K, 101 kPa, x1 = 0.2884): 0.357 ± 0.004 mPa·s
viscosity (303.15 K, 101 kPa, x1 = 0.4054): 0.327 ± 0.004 mPa·s
viscosity (303.15 K, 101 kPa, x1 = 0.4849): 0.317 ± 0.004 mPa·s
viscosity (303.15 K, 101 kPa, x1 = 0.5981): 0.308 ± 0.004 mPa·s
viscosity (303.15 K, 101 kPa, x1 = 0.6986): 0.302 ± 0.004 mPa·s
viscosity (303.15 K, 101 kPa, x1 = 0.8078): 0.299 ± 0.004 mPa·s
viscosity (303.15 K, 101 kPa, x1 = 0.8746): 0.514 ± 0.23 mPa·s
viscosity (303.15 K, 101 kPa, x1 = 0.9013): 0.304 ± 0.004 mPa·s
viscosity (308 K, 100 kPa, x1 = 0.0991): 0.4521 ± 0.045 mPa·s
viscosity (308 K, 100 kPa, x1 = 0.2043): 0.4145 ± 0.042 mPa·s
viscosity (308 K, 100 kPa, x1 = 0.316): 0.3945 ± 0.04 mPa·s
viscosity (308 K, 100 kPa, x1 = 0.4039): 0.3815 ± 0.038 mPa·s
viscosity (308 K, 100 kPa, x1 = 0.5003): 0.3712 ± 0.037 mPa·s
viscosity (308 K, 100 kPa, x1 = 0.6063): 0.3621 ± 0.036 mPa·s
viscosity (308 K, 100 kPa, x1 = 0.7402): 0.3502 ± 0.035 mPa·s
viscosity (308 K, 100 kPa, x1 = 0.8688): 0.3423 ± 0.034 mPa·s
viscosity (308.15 K, 101 kPa, x1 = 0.0892): 0.376 ± 0.004 mPa·s
viscosity (308.15 K, 101 kPa, x1 = 0.1871): 0.346 ± 0.004 mPa·s
viscosity (308.15 K, 101 kPa, x1 = 0.2884): 0.321 ± 0.004 mPa·s
viscosity (308.15 K, 101 kPa, x1 = 0.4054): 0.298 ± 0.004 mPa·s
viscosity (308.15 K, 101 kPa, x1 = 0.4849): 0.291 ± 0.004 mPa·s
viscosity (308.15 K, 101 kPa, x1 = 0.5981): 0.282 ± 0.003 mPa·s
viscosity (308.15 K, 101 kPa, x1 = 0.6986): 0.278 ± 0.003 mPa·s
viscosity (308.15 K, 101 kPa, x1 = 0.8078): 0.276 ± 0.003 mPa·s
viscosity (308.15 K, 101 kPa, x1 = 0.9013): 0.28 ± 0.003 mPa·s
viscosity (308.15 K, 101.33 kPa, x1 = 0.0495): 0.451 ± 0.003 mPa·s
viscosity (308.15 K, 101.33 kPa, x1 = 0.0999): 0.436 ± 0.003 mPa·s
viscosity (308.15 K, 101.33 kPa, x1 = 0.1494): 0.412 ± 0.003 mPa·s
viscosity (308.15 K, 101.33 kPa, x1 = 0.1995): 0.395 ± 0.003 mPa·s
viscosity (308.15 K, 101.33 kPa, x1 = 0.245): 0.38 ± 0.003 mPa·s
viscosity (308.15 K, 101.33 kPa, x1 = 0.2998): 0.364 ± 0.003 mPa·s
viscosity (308.15 K, 101.33 kPa, x1 = 0.3451): 0.352 ± 0.003 mPa·s
viscosity (308.15 K, 101.33 kPa, x1 = 0.3997): 0.341 ± 0.003 mPa·s
viscosity (308.15 K, 101.33 kPa, x1 = 0.4489): 0.333 ± 0.003 mPa·s
viscosity (308.15 K, 101.33 kPa, x1 = 0.495): 0.326 ± 0.003 mPa·s
viscosity (308.15 K, 101.33 kPa, x1 = 0.5496): 0.32 ± 0.003 mPa·s
viscosity (308.15 K, 101.33 kPa, x1 = 0.5999): 0.314 ± 0.003 mPa·s
viscosity (308.15 K, 101.33 kPa, x1 = 0.6494): 0.31 ± 0.003 mPa·s
viscosity (308.15 K, 101.33 kPa, x1 = 0.6997): 0.307 ± 0.003 mPa·s
viscosity (308.15 K, 101.33 kPa, x1 = 0.745): 0.305 ± 0.003 mPa·s
viscosity (308.15 K, 101.33 kPa, x1 = 0.7995): 0.305 ± 0.003 mPa·s
viscosity (308.15 K, 101.33 kPa, x1 = 0.8496): 0.306 ± 0.003 mPa·s
viscosity (308.15 K, 101.33 kPa, x1 = 0.8998): 0.307 ± 0.003 mPa·s
viscosity (308.15 K, 101.33 kPa, x1 = 0.95): 0.309 ± 0.003 mPa·s
viscosity (313 K, 100 kPa, x1 = 0.0991): 0.4125 ± 0.042 mPa·s
viscosity (313 K, 100 kPa, x1 = 0.2043): 0.3956 ± 0.04 mPa·s
viscosity (313 K, 100 kPa, x1 = 0.316): 0.3838 ± 0.039 mPa·s
viscosity (313 K, 100 kPa, x1 = 0.4039): 0.3736 ± 0.038 mPa·s
viscosity (313 K, 100 kPa, x1 = 0.5003): 0.3612 ± 0.036 mPa·s
viscosity (313 K, 100 kPa, x1 = 0.6063): 0.3512 ± 0.035 mPa·s
viscosity (313 K, 100 kPa, x1 = 0.7402): 0.3375 ± 0.034 mPa·s
viscosity (313 K, 100 kPa, x1 = 0.8688): 0.3215 ± 0.032 mPa·s
viscosity (318.15 K, 101.33 kPa, x1 = 0.0495): 0.403 ± 0.003 mPa·s
viscosity (318.15 K, 101.33 kPa, x1 = 0.0999): 0.39 ± 0.003 mPa·s
viscosity (318.15 K, 101.33 kPa, x1 = 0.1494): 0.376 ± 0.003 mPa·s
viscosity (318.15 K, 101.33 kPa, x1 = 0.1995): 0.361 ± 0.003 mPa·s
viscosity (318.15 K, 101.33 kPa, x1 = 0.245): 0.347 ± 0.003 mPa·s
viscosity (318.15 K, 101.33 kPa, x1 = 0.2998): 0.333 ± 0.003 mPa·s
viscosity (318.15 K, 101.33 kPa, x1 = 0.3451): 0.323 ± 0.003 mPa·s
viscosity (318.15 K, 101.33 kPa, x1 = 0.3997): 0.313 ± 0.003 mPa·s
viscosity (318.15 K, 101.33 kPa, x1 = 0.4489): 0.306 ± 0.003 mPa·s
viscosity (318.15 K, 101.33 kPa, x1 = 0.495): 0.3 ± 0.003 mPa·s
